The experiment deals with Bet BRD4 full length bromo-domain protein (Homo sapiens, UniProt O60885). The experiment in a line: Bet bromodomain TR-FRET assay (displacement of acetyl histone peptide). The class given is binding. As to conditions: Bet BRD4 full length bromodomain protein, 300 nM acetyl histone peptide substrate, read-out: IC50. For orientation: Time-resolved FRET reads energy transfer from a long-lived donor to a nearby acceptor.

Experimental findings from patent US10336697B2, “Spiro[cyclobutane-1,3′-indolin]-2′-one derivatives as bromodomain inhibitors” (Orion Corporation, priority 2015, dated 2019) are described below.

Broadly, the IC50 is the midpoint of a concentration-inhibition curve.

SMILES strings stand for the structures.

`O=C1Nc2c(OC3CCCNC3)cc(NS(=O)(=O)c3ccc(Cl)cc3F)cc2C12CCC2` (stereo not drawn) [compound 200, 4-Chloro-2-fluoro-N-(2′-oxo-7′-(piperidin-3-yloxy)spiro[cyclobutane-1,3′-indolin]-5′-yl)benzenesulfonamide]: the 50% inhibitory concentration (IC50) is under 0.6 µM.

For `CN1CCC(CNc2cc(NS(=O)(=O)c3ccc(F)cc3F)cc3c2NC(=O)C32CCC2)CC1` [Compound 32, 2,4-Difluoro-N-(7′-(((1-methylpiperidin-4-yl)methyl)amino)-2′-oxospiro[cyclobutane-1,3′-indolin]-5′-yl)benzenesulfonamide], the half-maximal inhibitory concentration (IC50) is under 0.6 µM. The figure for `O=C1Nc2c(-c3cccc(O)c3)cc(NS(=O)(=O)c3ccc(F)cc3F)cc2C12CCC2` [Compound 1, 2,4-difluoro-N-(7′-(3-hydroxyphenyl)-2′-oxospiro[cyclobutane-1,3′-indolin]-5′-yl)benzenesulfonamide] is under 0.6 µM; for `COc1ccccc1S(=O)(=O)Nc1cc(OC(C)c2ccccn2)c2c(c1)C1(CCC1)C(=O)N2` (single isomer, unassigned) [Compound 151, 2-Methoxy-N-(2′-oxo-7′-(1-(pyridin-2-yl)ethoxy)spiro[cyclobutane-1,3′-indolin]-5′-yl)benzenesulfonamide] it is under 0.6 µM; for `COC(=O)c1cc(NS(=O)(=O)c2ccc(F)cc2F)cc2c1NC(=O)C21CCC1` [Compound 41, Methyl 5′-((2,4-difluorophenyl)sulfonamido)-2′-oxospiro[cyclobutane-1,3′-indoline]-7′-carboxylate] it is under 0.6 µM. In the case of `CN1CCC(Oc2cc(NS(=O)(=O)c3ccc(F)cc3F)cc3c2NC(=O)C32CCC2)CC1` [Compound 171], the IC50 is under 0.6 µM.

As to `COc1ccccc1S(=O)(=O)Nc1cc(OCCN2CCOCC2)c2c(c1)C1(CCC1)C(=O)N2` [Compound 168, 2-Methoxy-N-(7′-(2-morpholinoethoxy)-2′-oxospiro[cyclobutane-1,3′-indolin]-5′-yl)benzenesulfonamide], the IC50 was under 0.6 µM. Regarding `COc1cc(Cl)ccc1S(=O)(=O)Nc1cc(OC2CCN(C)CC2)c2c(c1)C1(CCC1)C(=O)N2` [compound 188, 4-Chloro-2-methoxy-N-(7′-((1-methylpiperidin-4-yl)oxy)-2′-oxospiro[cyclobutane-1,3′-indolin]-5′-yl)benzenesulfonamide], the 50% inhibitory concentration (IC50) is under 0.6 µM. The figure for `CN1CCC(Oc2cc(NS(=O)(=O)c3ccccc3Cl)cc3c2NC(=O)C32CCC2)CC1` [Compound 133, 2-Chloro-N-(7′-((1-methylpiperidin-4-yl)oxy)-2′-oxospiro[cyclobutane-1,3′-indolin]-5′-yl)benzenesulfonamide] is under 0.6 µM; for `CC1(C)CNCCC1Nc1cc(NS(=O)(=O)c2ccc(F)cc2F)cc2c1NC(=O)C21CCC1` (stereo not drawn) [Compound 103, N-(7′-((3,3-dimethylpiperidin-4-yl)amino)-2′-oxospiro[cyclobutane-1,3′-indolin]-5′-yl)-2,4-difluorobenzenesulfonamide] it is under 0.6 µM.

Take `COc1ccccc1S(=O)(=O)Nc1cc(OC(C)c2cccnc2)c2c(c1)C1(CCC1)C(=O)N2` (single isomer, unassigned) [Compound 152, 2-methoxy-N-(2′-oxo-7′-(1-(pyridin-3-yl)ethoxy)spiro[cyclobutane-1,3′-indolin]-5′-yl)benzenesulfonamide]: the IC50 is under 0.6 µM. Under `CN1CCN(C(=O)c2cc(NS(=O)(=O)c3ccc(F)cc3F)cc3c2NC(=O)C32CCC2)CC1` [Compound 47, 2,4-Difluoro-N-(7′-(4-methylpiperazine-1-carbonyl)-2′-oxospiro[cyclobutane-1,3′-indolin]-5′-yl)benzenesulfonamide] stands over 1 µM. Under `O=C1CCC(Nc2cc(NS(=O)(=O)c3ccc(F)cc3F)cc3c2NC(=O)C32CCC2)CN1` (stereo not drawn) [Compound 33, 2,4-Difluoro-N-(2′-oxo-7′-((6-oxopiperidin-3-yl)amino)spiro[cyclobutane-1,3′-indolin]-5′-yl)benzenesulfonamide] stands under 0.6 µM; under `CCN1CCCC(Nc2cc(NS(=O)(=O)c3ccc(F)cc3F)cc3c2NC(=O)C32CCC2)C1` (stereo not drawn) [Compound 70, N-(7′-((1-ethylpiperidin-3-yl)amino)-2′-oxospiro[cyclobutane-1,3′-indolin]-5′-yl)-2,4-difluorobenzenesulfonamide], under 0.6 µM; under `COc1ccc(S(=O)(=O)Nc2cc(C3CCN(C)CC3)c3c(c2)C2(CCC2)C(=O)N3)c(F)c1` [Compound 98, 2-Fluoro-4-methoxy-N-(7′-(1-methylpiperidin-4-yl)-2′-oxospiro-[cyclobutane-1,3′-indolin]-5′-yl)benzenesulfonamide], under 0.6 µM. Under `COc1ccccc1S(=O)(=O)Nc1cc(Cc2cccc(F)c2)c2c(c1)C1(CCC1)C(=O)N2` [Compound 10, N-(7′-(3-fluorobenzyl)-2′-oxospiro[cyclobutane-1,3′-indolin]-5′-yl)-2-methoxybenzenesulfonamide] stands under 0.6 µM; under `C=C(c1ccccc1)c1cc(NS(=O)(=O)c2ccccc2OC)cc2c1NC(=O)C21CCC1` [Compound 11, 2-Methoxy-N-(2′-oxo-7′-(1-phenylvinyl)spiro[cyclobutane-1,3′-indolin]-5′-yl)benzenesulfonamide], under 0.6 µM; under `O=C(NC1CCCCC1)c1cc(NS(=O)(=O)c2ccc(F)cc2F)cc2c1NC(=O)C21CCC1` [Compound 55, N-cyclohexyl-5′-(2,4-difluorophenylsulfonamido)-2′-oxospiro[cyclobutane-1,3′-indoline]-7′-carboxamide], 0.6 to 1 µM. Consider `C=CCCNc1cc(NS(=O)(=O)c2ccccc2OC)cc2c1NC(=O)C21CCC1` [Compound 14, N-(7′-(but-3-en-1-ylamino)-2′-oxospiro[cyclobutane-1,3′-indolin]-5′-yl)-2-methoxybenzenesulfonamide], for which the IC50 was under 0.6 µM.

As for `COc1cc(-c2cc(NS(=O)(=O)c3ccc(F)cc3F)cc3c2NC(=O)C32CCC2)ccn1` [Compound 2, 2,4-Difluoro-N-(7′-(2-methoxypyridin-4-yl)-2′-oxospiro [cyclobutane-1,3′-indolin]-5′-yl)benzenesulfonamide], the half-inhibitory concentration (IC50) was 0.6 to 1 µM. The figure for `O=C1CC(c2cc(NS(=O)(=O)c3ccc(F)cc3F)cc3c2NC(=O)C32CCC2)CCN1` (stereo not drawn) [Compound 104, 2,4-Difluoro-N-(2′-oxo-7′-(2-oxopiperidin-4-yl)spiro[cyclobutane-1,3′-indolin]-5′-yl)benzenesulfonamide] is under 0.6 µM; for `COc1ccccc1S(=O)(=O)Nc1cc(N)c2c(c1)C1(CCC1)C(=O)N2` [Compound 12, N-(7′-amino-2′-oxospiro[cyclobutane-1,3′-indolin]-5′-yl)-2-methoxy-benzenesulfonamide] it is under 0.6 µM; for `COc1ccccc1S(C)(=O)=Nc1cc([N+](=O)[O-])c2c(c1)C1(CCC1)C(=O)N2` (stereo not drawn) [Compound-181, 5′-(((2-Methoxyphenyl)(methyl)(oxo)-l6-sulfanylidene)amino)-7′-nitrospiro[cyclobutane-1,3′-indolin]-2′-one] it is over 1 µM. Under `CN1CCC(NC(=O)c2cc(NS(=O)(=O)c3ccc(F)cc3F)cc3c2NC(=O)C32CCC2)C1` (stereo not drawn) [Compound 52, 5′-(2,4-Difluorophenylsulfonamido)-N-(1-methylpyrrolidin-3-yl)-2′-oxospiro[cyclobutane-1,3′-indoline]-7′-carboxamide] stands under 0.6 µM; under `O=C1NCCc2ccc(-c3cc(NS(=O)(=O)c4ccc(F)cc4F)cc4c3NC(=O)C43CCC3)cc21` [Compound 4, 2,4-Difluoro-N-(2′-oxo-7′-(1-oxo-1,2,3,4-tetrahydroisoquinolin-7-yl)spiro[cyclobutane-1,3′-indolin]-5′-yl)benzenesulfonamide], under 0.6 µM; under `CN1CCC(NC(=O)c2cc(NS(=O)(=O)N3CCCCC3)cc3c2NC(=O)C32CCC2)CC1` [Compound 85, N-(1-methylpiperidin-4-yl)-2′-oxo-5′-(piperidine-1-sulfon amido)spiro[cyclobutane-1,3′-indoline]-7′-carboxamide], over 1 µM. With `COc1ccc(F)cc1S(=O)(=O)Nc1cc(OC2CCN(C)CC2)c2c(c1)C1(CCC1)C(=O)N2` [Compound 129, 5-Fluoro-2-methoxy-N-(7′-((1-methylpiperidin-4-yl)oxy)-2′-oxospiro[cyclobutane-1,3′-indolin]-5′-yl)benzenesulfonamide], the IC50 was under 0.6 µM.

Consider `COc1ccc(-c2cc(NS(=O)(=O)c3ccc(F)cc3F)cc3c2NC(=O)C32CCC2)cn1` [Compound 3, 2,4-Difluoro-N-(7′-(6-methoxypyridin-3-yl)-2′-oxospiro [cyclobutane-1,3′-indolin]-5′-yl)benzenesulfonamide], for which the IC50 was in the range of 0.6 to 1 µM. `CCCN1CCC(Nc2cc(NS(=O)(=O)c3ccc(F)cc3F)cc3c2NC(=O)C32CCC2)CC1` [Compound 29, 2,4-Difluoro-N-(2′-oxo-7′-((1-propylpiperidin-4-yl)amino)spiro[cyclobutane-1,3′-indolin]-5′-yl)benzenesulfonamide]: the IC50 was under 0.6 µM. The figure for `COc1ccccc1S(=O)(=O)Nc1cc(OCCN2CCCC2)c2c(c1)C1(CCC1)C(=O)N2` [Compound 167, 2-Methoxy-N-(2′-oxo-7′-(2-(pyrrolidin-1-yl)ethoxy)spiro[cyclobutane-1,3′-indolin]-5′-yl)benzenesulfonamide] is under 0.6 µM; for `COc1ccccc1S(=O)(=O)Nc1cc(Cc2cccnc2)c2c(c1)C1(CCC1)C(=O)N2` [Compound 87, 2-Methoxy-N-(2′-oxo-7′-(pyridin-3-ylmethyl)spiro[cyclobutane-1,3′-indolin]-5′-yl)benzenesulfonamide] it is under 0.6 µM. Under `O=C1Nc2c(OC3CCOCC3)cc(NS(=O)(=O)c3ccc(Cl)cc3F)cc2C12CCC2` [Compound 142, 4-Chloro-2-fluoro-N-(2′-oxo-7′-((tetrahydro-2H-pyran-4-yl)oxy)spiro[cyclobutane-1,3′-indolin]-5′-yl)benzenesulfonamide] stands under 0.6 µM; under `CCOc1ccccc1S(=O)(=O)Nc1cc(C(=O)NC2CCN(C)CC2)c2c(c1)C1(CCC1)C(=O)N2` [Compound 84, 5′-(2-Ethoxyphenylsulfonamido)-N-(1-methylpiperidin-4-yl)-2′-oxospiro[cyclobutane-1,3′-indoline]-7′-carboxamide], 0.6 to 1 µM.
